Measured values: PubChem BioAssay (NCI)
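The compound was tested at five concentrations on cells cultured in 96-well plates, with a 48-hour exposure period. TGI denotes the concentration required for complete inhibition of growth.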

Legend:
Experiment in all cases: inhibition of tumour cell growth, NCI panel, 48 h
SNB-75 CNS = test system: SNB-75 CNS
SK-MEL-28 melanoma = test system: SK-MEL-28 melanoma
LXFL 529 NSCLC = test system: LXFL 529 NSCLC
SR leukemia = test system: SR leukemia
SNB-78 CNS = test system: SNB-78 CNS
OVCAR-8 ovarian = test system: OVCAR-8 ovarian
UO-31 renal = test system: UO-31 renal
U251 CNS = test system: U251 CNS
MOLT-4 leukemia = test system: MOLT-4 leukemia
SNB-19 CNS = test system: SNB-19 CNS
ACHN renal = test system: ACHN renal
NCI-H226 lung = test system: NCI-H226 lung
NCI-H460 lung = test system: NCI-H460 lung
KM12 colon = test system: KM12 colon
M19-MEL melanoma = test system: M19-MEL melanoma
HOP-62 NSCLC = test system: HOP-62 NSCLC
DMS 273 small cell lung = test system: DMS 273 small cell lung
786-0 renal = test system: 786-0 renal
NCI-H522 lung = test system: NCI-H522 lung
DMS 114 small cell lung = test system: DMS 114 small cell lung
SK-MEL-5 melanoma = test system: SK-MEL-5 melanoma
SW-620 colon = test system: SW-620 colon
OVCAR-5 ovarian = test system: OVCAR-5 ovarian
CAKI-1 renal = test system: CAKI-1 renal
HL-60(TB) leukemia = test system: HL-60(TB) leukemia
M14 melanoma = test system: M14 melanoma
UACC-257 melanoma = test system: UACC-257 melanoma
SF-539 CNS = test system: SF-539 CNS
HT29 colon = test system: HT29 colon
RXF 393 renal = test system: RXF 393 renal
SK-MEL-2 melanoma = test system: SK-MEL-2 melanoma
DLD-1 colon = test system: DLD-1 colon
K-562 leukemia = test system: K-562 leukemia
CCRF-CEM leukemia = test system: CCRF-CEM leukemia
TK-10 renal = test system: TK-10 renal
OVCAR-4 ovarian = test system: OVCAR-4 ovarian
UACC-62 melanoma = test system: UACC-62 melanoma
SF-295 CNS = test system: SF-295 CNS
SF-268 CNS = test system: SF-268 CNS
SK-OV-3 ovarian = test system: SK-OV-3 ovarian
NCI-H23 lung = test system: NCI-H23 lung
A498 renal = test system: A498 renal
SN12C renal = test system: SN12C renal
XF 498 CNS = test system: XF 498 CNS
A549 NSCLC = test system: A549 NSCLC
HCT-116 colon = test system: HCT-116 colon
EKVX NSCLC = test system: EKVX NSCLC
OVCAR-3 ovarian = test system: OVCAR-3 ovarian
HCT-15 colon = test system: HCT-15 colon
LOX IMVI melanoma = test system: LOX IMVI melanoma
HCC-2998 colon = test system: HCC-2998 colon
HOP-92 NSCLC = test system: HOP-92 NSCLC
KM20L2 colon = test system: KM20L2 colon
MALME-3M melanoma = test system: MALME-3M melanoma
IGROV1 ovarian = test system: IGROV1 ovarian
COLO 205 colon = test system: COLO 205 colon

`CCOC(=O)C1CCCCN1C(=O)OCc1ccccc1` (centres undefined) was tested, and the TGI (SNB-75 CNS) was > 100 µM, the TGI (SK-MEL-28 melanoma) was > 100 µM and the TGI (LXFL 529 NSCLC) was > 100 µM. The TGI (SR leukemia) was > 100 µM, the TGI (SNB-78 CNS) was > 100 µM and the TGI (OVCAR-8 ovarian) was > 100 µM. The TGI (UO-31 renal) was > 100 µM, the TGI (U251 CNS) was > 100 µM and the TGI (MOLT-4 leukemia) was > 100 µM. For the same compound, the TGI (SNB-19 CNS) was > 100 µM, the TGI (ACHN renal) was > 100 µM and the TGI (NCI-H226 lung) was > 100 µM. The TGI (NCI-H460 lung) was > 100 µM, the TGI (KM12 colon) was > 100 µM and the TGI (M19-MEL melanoma) was > 100 µM. The TGI (HOP-62 NSCLC) was > 100 µM, the TGI (DMS 273 small cell lung) was > 100 µM and the TGI (786-0 renal) was > 100 µM. The TGI (NCI-H522 lung) was > 100 µM, the TGI (DMS 114 small cell lung) was > 100 µM and the TGI (SK-MEL-5 melanoma) was > 100 µM. For the same compound, the TGI (SW-620 colon) was > 100 µM, the TGI (OVCAR-5 ovarian) was > 100 µM and the TGI (CAKI-1 renal) was > 100 µM. For the same compound, the TGI (HL-60(TB) leukemia) was > 100 µM, the TGI (M14 melanoma) was > 100 µM and the TGI (UACC-257 melanoma) was > 100 µM. The TGI (SF-539 CNS) was > 100 µM, the TGI (HT29 colon) was > 100 µM and the TGI (RXF 393 renal) was > 100 µM. The TGI (SK-MEL-2 melanoma) was > 100 µM, the TGI (DLD-1 colon) was > 100 µM and the TGI (K-562 leukemia) was > 100 µM. For the same compound, the TGI (CCRF-CEM leukemia) was > 100 µM, the TGI (TK-10 renal) was > 100 µM and the TGI (OVCAR-4 ovarian) was > 100 µM. The TGI (UACC-62 melanoma) was > 100 µM, the TGI (SF-295 CNS) was > 100 µM and the TGI (SF-268 CNS) was > 100 µM. The TGI (SK-OV-3 ovarian) was > 100 µM, the TGI (NCI-H23 lung) was > 100 µM and the TGI (A498 renal) was > 100 µM. For the same compound, the TGI (SN12C renal) was > 100 µM, the TGI (XF 498 CNS) was > 100 µM and the TGI (A549 NSCLC) was > 100 µM. The TGI (HCT-116 colon) was > 100 µM, the TGI (EKVX NSCLC) was > 100 µM and the TGI (OVCAR-3 ovarian) was > 100 µM. The TGI (HCT-15 colon) was > 100 µM.

Compound `CNCC(=O)Nc1ccc2c(c1)C(=O)c1ccc(NC(=O)CNC)cc1C2=O` has a TGI (SNB-75 CNS) of 27.1 µM, a TGI (SK-MEL-28 melanoma) of 10.1 µM and a TGI (LXFL 529 NSCLC) of 12.3 µM. The TGI (SR leukemia) was 7.54 µM, the TGI (SNB-78 CNS) was 10.7 µM and the TGI (OVCAR-8 ovarian) was 10.2 µM. For the same compound, the TGI (UO-31 renal) was 25.7 µM, the TGI (U251 CNS) was 10.4 µM and the TGI (MOLT-4 leukemia) was 10.1 µM. It also gave a TGI (NCI-H226 lung) of 20.3 µM, a TGI (NCI-H460 lung) of 12.3 µM and a TGI (KM12 colon) of 10.4 µM. The TGI (HOP-62 NSCLC) was 9.98 µM, the TGI (LOX IMVI melanoma) was 4.17 µM and the TGI (DMS 273 small cell lung) was 10.7 µM. It also gave a TGI (786-0 renal) of 15.7 µM, a TGI (NCI-H522 lung) of 4.81 µM and a TGI (DMS 114 small cell lung) of 7.12 µM. It also gave a TGI (SK-MEL-5 melanoma) of 17.9 µM, a TGI (SW-620 colon) of 12.3 µM and a TGI (HCC-2998 colon) of 14.6 µM. It also gave a TGI (OVCAR-5 ovarian) of 34.8 µM, a TGI (CAKI-1 renal) of 20 µM and a TGI (HOP-92 NSCLC) of 7 µM. For the same compound, the TGI (M14 melanoma) was 11.8 µM, the TGI (UACC-257 melanoma) was 16.1 µM and the TGI (SF-539 CNS) was 11.2 µM. It also gave a TGI (KM20L2 colon) of 21.1 µM, a TGI (HT29 colon) of 16.2 µM and a TGI (RXF 393 renal) of 20.3 µM. It also gave a TGI (SK-MEL-2 melanoma) of 11.7 µM, a TGI (DLD-1 colon) of 29.9 µM and a TGI (K-562 leukemia) of 7.19 µM. The TGI (MALME-3M melanoma) was 12.9 µM, the TGI (CCRF-CEM leukemia) was 11 µM and the TGI (TK-10 renal) was 44.9 µM. For the same compound, the TGI (OVCAR-4 ovarian) was 5.68 µM, the TGI (UACC-62 melanoma) was 22.2 µM and the TGI (SF-295 CNS) was 18.6 µM. It also gave a TGI (SK-OV-3 ovarian) of 3.81 µM, a TGI (NCI-H23 lung) of 31.6 µM and a TGI (A498 renal) of 28.5 µM. It also gave a TGI (SN12C renal) of 11.9 µM, a TGI (XF 498 CNS) of 8.25 µM and a TGI (A549 NSCLC) of 25.6 µM. The TGI (HCT-116 colon) was 11.9 µM, the TGI (IGROV1 ovarian) was 38 µM and the TGI (COLO 205 colon) was 11 µM. For the same compound, the TGI (OVCAR-3 ovarian) was 11.1 µM and the TGI (HCT-15 colon) was 23.2 µM.
